# Source: patent US20200222474A1, “COMPOSITIONS AND METHODS FOR INCREASING PHYTOCHEMICAL BIOAVAILABLITY AND BIOACTIVITY” (North Carolina State University, priority 2017, published 2020)
# System: L. acidophilus NCFM
# Assay: RNA-seq transcriptional analysis of L. acidophilus NCFM growing on plant glycosides
# Assay type: cell-based, Lactobacillus acidophilus
# [1] = LBA1481 D-ribose-binding protein precursor, COG G
# [2] = LBA1482 Ribose ABC transporter, COG G
# [3] = LBA1483 Ribose ABC transporter ATP binding protein, COG G
# [4] = LBA1484 D-ribose pyranase, COG G
# [5] = LBA1494 Lincomycin-resistance protein, COG GEPR
# [6] = LBA1607 Phosphatidylserine decarboxylase precursor, COG I
# [7] = LBA1632 NAD-dependent aldehyde dehydrogenase, COG C
# [8] = LBA1653 Nicotinamide mononucleotide, COG H
# [9] = LBA1684 Putative PTS system IIA component, COG G
# [10] = LBA1689 Maltose-6′-phosphate Oucosidase, COG G
# [11] = LBA1700 Transcriptional regulator-type, COG K
# [12] = LBA1701 Melibiose operon regulatory protein, COG K
# [13] = LBA1705 PTS system IIBC component, COG G
# [14] = LBA1708 Transcriptional antiterminator, COG K
# [15] = LBA1710 Thermostable pullulanase, COG G
# [16] = LBA1812 Alpha-glucosidase II, COG G
# [17] = LBA1870 Maltose phosphorylase, COG G
# [18] = LBA1872 Oligo-1,6-glucosidase, COG G
# [19] = LBA1955 Transcription regulator family protein, COG K
# [20] = gene LBA0046 (Hypothetical protein)
# [21] = gene LBA0149 (Putative nucleotide-binding protein)
# [22] = gene LBA0263 (Hypothetical protein)
compound,measurement,setting,value
N#C[C@H](O[C@@H]1O[C@H](CO[C@@H]2O[C@H](CO)[C@@H](O)[C@H](O)[C@H]2O)[C@@H](O)[C@H](O)[C@H]1O)c1ccccc1 [Amygdalin],Transcripts per million (rpm),"LBA1468 Beta-galactosidase small subunit, COG G",61.3 rpm
same,Log2 differential normalized TPM ratio compared to glucose,[1],3
same,Log2 differential normalized TPM ratio compared to lactose,[1],2.3
same,Transcripts per million (rpm),[1],33 rpm
same,Log2 differential normalized TPM ratio compared to glucose,[2],3.4
same,Log2 differential normalized TPM ratio compared to lactose,[2],2.3
same,Transcripts per million (rpm),[2],32.6 rpm
same,Log2 differential normalized TPM ratio compared to glucose,[3],3.6
same,Log2 differential normalized TPM ratio compared to lactose,[3],2.6
same,Transcripts per million (rpm),[3],30.8 rpm
same,Log2 differential normalized TPM ratio compared to glucose,[4],3.6
same,Log2 differential normalized TPM ratio compared to lactose,[4],2.9
same,Transcripts per million (rpm),[4],37.3 rpm
same,Log2 differential normalized TPM ratio compared to glucose,"LBA1485 Ribokinase, COG G",3.5
same,Log2 differential normalized TPM ratio compared to lactose,"LBA1485 Ribokinase, COG G",2.8
same,Transcripts per million (rpm),"LBA1485 Ribokinase, COG G",29.8 rpm
same,Log2 differential normalized TPM ratio compared to glucose,[5],−0.7
same,Log2 differential normalized TPM ratio compared to lactose,[5],−0.8
same,Transcripts per million (rpm),[5],2.6 rpm
same,Log2 differential normalized TPM ratio compared to glucose,[6],2.6
same,Log2 differential normalized TPM ratio compared to lactose,[6],1.6
same,Transcripts per million (rpm),[6],102.4 rpm
same,Log2 differential normalized TPM ratio compared to glucose,[7],4.4
same,Log2 differential normalized TPM ratio compared to lactose,[7],2.6
same,Transcripts per million (rpm),[7],1223.3 rpm
same,Log2 differential normalized TPM ratio compared to glucose,[8],−0.1
same,Log2 differential normalized TPM ratio compared to lactose,[8],−0.7
same,Transcripts per million (rpm),[8],180.2 rpm
same,Log2 differential normalized TPM ratio compared to glucose,[9],6.6
same,Log2 differential normalized TPM ratio compared to lactose,[9],4.7
same,Transcripts per million (rpm),[9],976.1 rpm
same,Log2 differential normalized TPM ratio compared to glucose,[10],5.3
same,Log2 differential normalized TPM ratio compared to lactose,[10],3.9
same,Transcripts per million (rpm),[10],113.8 rpm
same,Log2 differential normalized TPM ratio compared to glucose,[11],2.5
same,Log2 differential normalized TPM ratio compared to lactose,[11],2.1
same,Transcripts per million (rpm),[11],96.2 rpm
same,Log2 differential normalized TPM ratio compared to glucose,[12],5.3
same,Log2 differential normalized TPM ratio compared to lactose,[12],4.6
same,Transcripts per million (rpm),[12],1323.5 rpm
same,Log2 differential normalized TPM ratio compared to glucose,[13],2.7
same,Log2 differential normalized TPM ratio compared to lactose,[13],1.9
same,Transcripts per million (rpm),[13],18.5 rpm
same,Log2 differential normalized TPM ratio compared to glucose,[14],2.8
same,Log2 differential normalized TPM ratio compared to lactose,[14],1.4
same,Transcripts per million (rpm),[14],3.3 rpm
same,Log2 differential normalized TPM ratio compared to glucose,[15],2.1
same,Log2 differential normalized TPM ratio compared to lactose,[15],1.7
same,Transcripts per million (rpm),[15],26.7 rpm
same,Log2 differential normalized TPM ratio compared to glucose,"LBA1723 Transposase, COG L",2
same,Log2 differential normalized TPM ratio compared to lactose,"LBA1723 Transposase, COG L",1.8
same,Transcripts per million (rpm),"LBA1723 Transposase, COG L",176.9 rpm
same,Log2 differential normalized TPM ratio compared to glucose,[16],5.3
same,Log2 differential normalized TPM ratio compared to lactose,[16],3.2
same,Transcripts per million (rpm),[16],520.3 rpm
same,Log2 differential normalized TPM ratio compared to glucose,[17],2.7
same,Log2 differential normalized TPM ratio compared to lactose,[17],3.9
same,Transcripts per million (rpm),[17],539.7 rpm
same,Log2 differential normalized TPM ratio compared to glucose,"LBA1871 Neopullulanase, COG G",4.3
same,Log2 differential normalized TPM ratio compared to lactose,"LBA1871 Neopullulanase, COG G",3.6
same,Transcripts per million (rpm),"LBA1871 Neopullulanase, COG G",43.6 rpm
same,Log2 differential normalized TPM ratio compared to glucose,[18],3.6
same,Log2 differential normalized TPM ratio compared to lactose,[18],3.2
same,Transcripts per million (rpm),[18],30 rpm
same,Log2 differential normalized TPM ratio compared to glucose,"LBA1873 Acetate kinase, COG C",4.6
same,Log2 differential normalized TPM ratio compared to lactose,"LBA1873 Acetate kinase, COG C",3.2
same,Transcripts per million (rpm),"LBA1873 Acetate kinase, COG C",67.3 rpm
same,Log2 differential normalized TPM ratio compared to glucose,"LBA1878 Glycerol kinase, COG C",1.4
same,Log2 differential normalized TPM ratio compared to lactose,"LBA1878 Glycerol kinase, COG C",1.3
same,Transcripts per million (rpm),"LBA1878 Glycerol kinase, COG C",17.8 rpm
same,Log2 differential normalized TPM ratio compared to glucose,[19],3.8
same,Log2 differential normalized TPM ratio compared to lactose,[19],4.2
same,Transcripts per million (rpm),[19],5835.9 rpm
same,number of up-regulated genes,"RNA-seq, compared to glucose",116 genes
same,number of uniquely induced genes,"RNA-seq, up-regulated genes not shared with the other PGs",58
same,Log2 differential normalized TPM ratio compared to glucose,[20],−3
same,Log2 differential normalized TPM ratio compared to lactose,[20],−3.8
same,Transcripts per million (rpm),[20],29.9 rpm
same,Log2 differential normalized TPM ratio compared to glucose,[21],2
same,Log2 differential normalized TPM ratio compared to lactose,[21],1.2
same,Transcripts per million (rpm),[21],1625.4 rpm
same,Log2 differential normalized TPM ratio compared to glucose,[22],2.1
same,Log2 differential normalized TPM ratio compared to lactose,[22],1.4
same,Transcripts per million (rpm),[22],55.9 rpm
